Source: PMC2919064 (Journal of medicinal chemistry, 2010)
Read-outs that look alike come from different tables or passages of the source.

What was measured:
[1] = system: HupT3 cells; assay: MTS cell proliferation assay, pancreatic cancer cells; settings: read-out: inhibition of pancreatic cancer cell lines IC50, Hup T3
[2] = system: SU86.86 cells; assay: as above; settings: read-out: inhibition of pancreatic cancer cell lines IC50, SU 86.86
[3] = system: MiaPaca-2 cells; assay: as above; settings: read-out: inhibition of pancreatic cancer cell lines IC50, Mia Paca-2
[4] = target: HDAC1 (Homo sapiens, UniProt Q13547); assay: HDAC isoform inhibition assay
[5] = system: BxPC-3 cells; assay: MTS cell proliferation assay, pancreatic cancer cells; settings: read-out: inhibition of pancreatic cancer cell lines IC50, BxPC-3
[6] = system: Panc04.03 cells; assay: as above; settings: read-out: inhibition of pancreatic cancer cell lines IC50, Panc 04.03
[7] = target: T1, HDAC6 (Homo sapiens, UniProt Q9UBN7); assay: HDAC isoform inhibition assay
T1 sequence (Q9UBN7 1-1215): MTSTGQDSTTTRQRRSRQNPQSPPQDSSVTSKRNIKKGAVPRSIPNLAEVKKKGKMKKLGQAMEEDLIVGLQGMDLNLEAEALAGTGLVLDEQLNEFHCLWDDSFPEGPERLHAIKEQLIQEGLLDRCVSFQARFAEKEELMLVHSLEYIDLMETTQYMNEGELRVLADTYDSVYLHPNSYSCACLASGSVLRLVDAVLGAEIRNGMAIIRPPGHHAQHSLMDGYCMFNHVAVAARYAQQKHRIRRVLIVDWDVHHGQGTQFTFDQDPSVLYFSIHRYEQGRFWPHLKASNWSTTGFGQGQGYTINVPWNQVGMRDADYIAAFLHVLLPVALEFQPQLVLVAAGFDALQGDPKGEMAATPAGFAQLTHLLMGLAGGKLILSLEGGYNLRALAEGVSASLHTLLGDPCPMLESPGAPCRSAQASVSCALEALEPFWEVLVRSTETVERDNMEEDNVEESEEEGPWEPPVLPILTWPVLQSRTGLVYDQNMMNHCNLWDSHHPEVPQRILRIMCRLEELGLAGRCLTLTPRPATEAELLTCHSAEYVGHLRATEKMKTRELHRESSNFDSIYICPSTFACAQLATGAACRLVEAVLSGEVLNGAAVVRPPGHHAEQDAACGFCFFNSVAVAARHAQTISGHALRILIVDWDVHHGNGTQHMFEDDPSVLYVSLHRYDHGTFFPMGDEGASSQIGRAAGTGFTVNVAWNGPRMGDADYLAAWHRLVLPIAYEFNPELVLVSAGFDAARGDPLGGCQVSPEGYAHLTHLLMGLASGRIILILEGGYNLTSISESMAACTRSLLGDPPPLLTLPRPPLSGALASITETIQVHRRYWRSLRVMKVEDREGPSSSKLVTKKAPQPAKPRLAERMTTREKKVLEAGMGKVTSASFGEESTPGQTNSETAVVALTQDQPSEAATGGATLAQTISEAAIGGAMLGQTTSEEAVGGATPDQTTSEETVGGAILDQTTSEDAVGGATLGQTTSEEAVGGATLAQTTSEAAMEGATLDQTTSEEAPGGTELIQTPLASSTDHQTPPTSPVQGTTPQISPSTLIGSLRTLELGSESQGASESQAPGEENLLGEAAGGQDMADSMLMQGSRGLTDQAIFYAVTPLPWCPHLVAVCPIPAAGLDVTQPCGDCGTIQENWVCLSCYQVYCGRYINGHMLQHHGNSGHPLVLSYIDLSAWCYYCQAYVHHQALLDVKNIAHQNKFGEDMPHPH

[8] = target: HDAC3 (Homo sapiens, UniProt O15379); assay: HDAC isoform inhibition assay
[9] = system: Panc04.03 cells; assay: Cell cycle analysis by flow cytometry; type: cell-based; settings: 5 µM for 24 h, vs vehicle (DMSO)
[10] = system: p21 in BXPC-3 cell line; assay: Immunoblot of CDK inhibitor p21 expression; type: cell-based; settings: 5 µM for 18 h, vs vehicle (DMSO)
[11] = system: SU86.86 and Panc04.03 xenografts; assay: Xenograft tumor model, SU86.86 and Panc04.03, immunoblot of tumor proteins; type: in vivo, mouse
[12] = target: T2, HDAC8 (Homo sapiens, UniProt Q9BY41); assay: HDAC isoform inhibition assay
T2 sequence (Q9BY41 1-377): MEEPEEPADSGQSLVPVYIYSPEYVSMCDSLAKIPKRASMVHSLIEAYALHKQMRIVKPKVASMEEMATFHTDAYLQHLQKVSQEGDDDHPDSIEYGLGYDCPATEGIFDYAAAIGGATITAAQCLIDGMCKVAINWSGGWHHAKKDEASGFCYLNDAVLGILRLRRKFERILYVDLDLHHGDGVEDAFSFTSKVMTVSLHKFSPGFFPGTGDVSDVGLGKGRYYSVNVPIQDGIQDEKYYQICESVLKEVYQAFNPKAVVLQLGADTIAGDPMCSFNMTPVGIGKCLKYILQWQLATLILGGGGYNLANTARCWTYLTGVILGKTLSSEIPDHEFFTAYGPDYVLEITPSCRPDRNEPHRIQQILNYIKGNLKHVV

[13] = target: HDAC2 (Homo sapiens, UniProt Q92769); assay: HDAC isoform inhibition assay
[14] = target: T3, HDAC10 (Homo sapiens, UniProt Q969S8); assay: HDAC isoform inhibition assay
T3 sequence (Q969S8 1-669): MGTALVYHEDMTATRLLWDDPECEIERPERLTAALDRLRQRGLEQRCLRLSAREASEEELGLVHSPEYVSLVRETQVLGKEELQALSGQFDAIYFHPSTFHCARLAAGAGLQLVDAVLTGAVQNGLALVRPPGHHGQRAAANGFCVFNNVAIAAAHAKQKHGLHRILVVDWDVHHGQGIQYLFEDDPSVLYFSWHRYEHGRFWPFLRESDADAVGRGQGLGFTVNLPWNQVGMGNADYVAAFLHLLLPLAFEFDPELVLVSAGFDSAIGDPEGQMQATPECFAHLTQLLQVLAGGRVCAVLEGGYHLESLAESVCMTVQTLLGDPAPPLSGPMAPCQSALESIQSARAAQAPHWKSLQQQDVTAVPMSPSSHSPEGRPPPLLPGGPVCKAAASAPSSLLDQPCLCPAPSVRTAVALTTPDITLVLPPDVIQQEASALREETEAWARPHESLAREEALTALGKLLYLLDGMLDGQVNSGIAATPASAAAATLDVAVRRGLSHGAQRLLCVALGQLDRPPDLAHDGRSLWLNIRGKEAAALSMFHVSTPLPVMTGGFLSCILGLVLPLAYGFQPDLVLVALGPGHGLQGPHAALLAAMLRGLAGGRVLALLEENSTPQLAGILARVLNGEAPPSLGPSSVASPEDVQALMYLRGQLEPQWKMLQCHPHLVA

Sequence of HDAC3 (O15379 whole entry, canonical isoform): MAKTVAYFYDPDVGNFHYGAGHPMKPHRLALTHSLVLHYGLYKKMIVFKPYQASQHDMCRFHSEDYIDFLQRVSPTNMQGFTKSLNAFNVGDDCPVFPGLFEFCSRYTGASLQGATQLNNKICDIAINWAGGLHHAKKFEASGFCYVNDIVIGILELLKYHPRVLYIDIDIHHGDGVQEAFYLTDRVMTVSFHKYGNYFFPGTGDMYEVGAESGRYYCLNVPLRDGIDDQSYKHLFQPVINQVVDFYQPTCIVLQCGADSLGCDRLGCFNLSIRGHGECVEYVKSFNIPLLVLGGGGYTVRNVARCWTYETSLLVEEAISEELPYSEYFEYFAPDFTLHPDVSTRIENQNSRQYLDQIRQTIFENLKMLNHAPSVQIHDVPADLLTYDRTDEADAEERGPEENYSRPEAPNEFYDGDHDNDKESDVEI
Sequence of HDAC3 (Q9Y618 395-489 partner limits assumed): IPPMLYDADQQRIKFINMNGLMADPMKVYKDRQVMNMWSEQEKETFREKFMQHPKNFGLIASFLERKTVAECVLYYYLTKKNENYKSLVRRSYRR
Sequence of HDAC1 (Q13547 whole entry, canonical isoform): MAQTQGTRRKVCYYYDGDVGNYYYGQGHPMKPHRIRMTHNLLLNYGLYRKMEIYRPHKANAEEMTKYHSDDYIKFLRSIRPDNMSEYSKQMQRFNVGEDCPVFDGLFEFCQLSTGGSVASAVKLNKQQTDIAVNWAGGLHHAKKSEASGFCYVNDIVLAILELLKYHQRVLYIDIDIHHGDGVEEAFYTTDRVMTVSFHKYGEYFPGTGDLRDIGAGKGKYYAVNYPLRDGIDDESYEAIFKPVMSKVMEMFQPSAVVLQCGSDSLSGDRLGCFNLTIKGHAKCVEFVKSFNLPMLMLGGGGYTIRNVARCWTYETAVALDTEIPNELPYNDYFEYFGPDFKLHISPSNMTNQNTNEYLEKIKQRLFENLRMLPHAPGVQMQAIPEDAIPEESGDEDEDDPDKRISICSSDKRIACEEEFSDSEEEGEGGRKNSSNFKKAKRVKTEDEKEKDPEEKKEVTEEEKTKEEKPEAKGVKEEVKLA
Sequence of HDAC2 (Q92769 whole entry, canonical isoform): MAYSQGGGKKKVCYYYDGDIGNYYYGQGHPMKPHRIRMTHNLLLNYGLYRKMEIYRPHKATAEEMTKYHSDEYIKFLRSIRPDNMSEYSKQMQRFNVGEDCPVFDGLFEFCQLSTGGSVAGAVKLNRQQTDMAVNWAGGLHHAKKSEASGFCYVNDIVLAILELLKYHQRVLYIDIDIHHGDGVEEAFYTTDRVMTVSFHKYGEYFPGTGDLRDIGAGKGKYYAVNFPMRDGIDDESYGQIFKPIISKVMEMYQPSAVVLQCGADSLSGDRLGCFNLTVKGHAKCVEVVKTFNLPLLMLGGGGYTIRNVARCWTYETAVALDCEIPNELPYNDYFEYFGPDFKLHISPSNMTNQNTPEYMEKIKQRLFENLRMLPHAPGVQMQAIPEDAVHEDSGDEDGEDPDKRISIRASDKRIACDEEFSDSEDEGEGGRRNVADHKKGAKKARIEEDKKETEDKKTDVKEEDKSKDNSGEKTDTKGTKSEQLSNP

O=C(CCCCCCC(=O)Nc1cccc(-c2cn(-c3ccc(CO)cc3)nn2)c1)NO [4f, Octanedioic acid hydroxyamide {3-[1-(4-hydroxymethylphenyl)-1H-[1,2,3]triazol-4-yl]phenyl}amide]
IC50 ([1]; Homo sapiens, HuP-T3, 72 h): 200 nM
IC50 ([2]; Homo sapiens, SU.86.86, 72 h): 1000 nM
IC50 ([3]; Homo sapiens, MIA PaCa-2, 72 h): 200 nM
IC50 [4]: 3.04 nM
IC50 ([5]; Homo sapiens, BXPC-3, 72 h): 1000 nM
IC50 ([6]; Homo sapiens, Panc 04.03, 72 h): 1000 nM
IC50 [7]: 7.6 nM

COc1ccc(-n2cc(-c3cccc(NC(=O)CCCCCCC(=O)NO)c3)nn2)cc1F [4h, Octanedioic acid {3-[1-(3-fluoro-4-methoxyphenyl)-1H-[1,2,3]-triazol-4-yl]phenyl}amide hydroxyamide]
IC50 ([1]; Homo sapiens, HuP-T3, 72 h): 50 nM
IC50 ([2]; Homo sapiens, SU.86.86, 72 h): 1000 nM
IC50 ([3]; Homo sapiens, MIA PaCa-2, 72 h): 100 nM
IC50 [8]: 3.39 nM
IC50 [4]: 5.06 nM
IC50 ([5]; Homo sapiens, BXPC-3, 72 h): 200 nM
IC50 ([6]; Homo sapiens, Panc 04.03, 72 h): 100 nM
IC50 [7]: 3.85 nM

O=C(CCCCCCC(=O)Nc1ccccc1)NO [SAHA (1a), suberoylanilide hydroxamic acid, reference compound]
IC50 ([1]; Homo sapiens, HuP-T3, 72 h): 800 nM

O=C(CCCCCCC(=O)Nc1cccc(-c2cn(-c3ccccc3)nn2)c1)NO [compound 4a, octanedioic acid hydroxyamide[3-(1-phenyl-1H-[1,2,3]triazol-4-yl)phenyl]amide]
effect on cell cycle profile [9]: loss of S-phase cells and an increase in the percentage of cells in G1
expression of p21 protein [10]: increased expression of p21
expression of CDK inhibitors p15, p16, p21, p27 and p57 in xenograft tumors ([11]; 10 and 100 mg/kg i.p. every 12 h for 48 h, athymic nude mice): re-activated
pancreatic cancer cell growth in vivo ([11]; pancreatic tumor cell line xenografts, preliminary in vivo evaluation): suppresses pancreatic cancer cell growth in vivo
IC50 ([6]; Homo sapiens, Panc 04.03, 72 h): < 500 nM

O=C(CCCCCCC(=O)Nc1cccc(-c2cn(C3CCCCC3)nn2)c1)NO [compound 4j, Octanedioic acid [3-(1-cyclohexyl-1H-[1,2,3]triazol-4-yl)phenyl]amide hydroxyamide]
fold more potent than compound 4a, HDAC3 [8]: 2- to 3 fold
fold more potent than compound 4a, HDAC8 ([12]; ratio of IC50 vs 4a): 2- to 3 fold
fold more potent than compound 4a, HDAC1 ([4]; ratio of IC50 vs 4a): 2- to 3 fold
fold more potent than compound 4a, HDAC2 [13]: 2- to 3 fold
fold more potent than compound 4a, HDAC10 ([14]; ratio of IC50 vs 4a): 2- to 3 fold
fold more potent than compound 4a, HDAC6 ([7]; ratio of IC50 vs 4a): 2- to 3 fold

Octanedioic acid (2-aminophenyl)amide [3-(1-phenyl-1H-[1,2,3] triazol-4-yl)phenyl]amide [12a]
IC50 ([1]; 72 h post treatment): > 50000 nM
IC50 ([2]; 72 h post treatment): 32000 nM
IC50 ([3]; 72 h post treatment): > 50000 nM
IC50 ([8]; read-out: IC50 HDAC3): 122 ± 9 nM
IC50 ([12]; read-out: IC50 HDAC8, tested at Nanosyn, 17 hours at 25 °C): > 30000 nM
IC50 ([14]; read-out: IC50 HDAC10, tested at Nanosyn, 17 hours at 25 °C): > 30000 nM
IC50 ([5]; 72 h post treatment): > 50000 nM
IC50 ([6]; 72 h post treatment): > 50000 nM
IC50 ([7]; read-out: IC50 HDAC6, tested at Nanosyn, 17 hours at 25 °C): > 30000 nM
